The values that follow are results of earlier work, collected in patent US20110212944A1, “2-OXO-1-PYRROLIDINE DERIVATIVES” (priority 2008, published 2011).

Take `CCC[C@@H]1CC(=O)N([C@@H](CC)C(N)=O)C1` [brivaracetam, 2(S)-[2-oxo-4(R)-propylpyrrolidin-1-yl]butyramide]: the “time after drug administration within which adverse events subsided” value (after drug administration) is at most 24 h. Further, for the setting “primarily CNS-related events (dizziness, somnolence, headache etc.)”, the “severity of treatment emergent adverse events” value is reported as “mild to moderate”.
